Measured values: article PMC3887211, “Automethylation Activities within the Mixed Lineage Leukemia-1 (MLL1) Core Complex Reveal Evidence Supporting a “Two-active Site” Model for Multiple Histone H3 Lysine 4 Methylation” (The Journal of Biological Chemistry, 2013)

Assays:
[1] = target: T1, MLL1 SET domain (MLL^3745) (Homo sapiens, UniProt Q03164); test: [3H]methyl transfer to H3 peptide, streptavidin pull-down, liquid scintillation counting; assay type: biochemical; settings: histone H3 peptide (1-20)-GGK-biotin 500 μM fixed; 7 μM MLL1; 0-100 μM labelled compound; assay buffer pH 8.5, 15 °C; construct of MLL1 not stated for this assay; read-out: apparent Km
T1 construct: gene KMT2A; C-terminal Win motif + SET domain, residues 3745-3969, 26 kDa, expressed in E. coli as GST fusion
T1 sequence (Q03164 3745-3969): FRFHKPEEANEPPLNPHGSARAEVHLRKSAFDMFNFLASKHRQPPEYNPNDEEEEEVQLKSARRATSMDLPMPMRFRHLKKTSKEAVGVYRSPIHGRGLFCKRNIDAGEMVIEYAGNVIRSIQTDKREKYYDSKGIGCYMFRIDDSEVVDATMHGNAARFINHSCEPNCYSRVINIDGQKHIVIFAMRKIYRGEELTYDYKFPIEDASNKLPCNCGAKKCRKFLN

[2] = target: T2, MBP-Trithorax SET domain (Drosophila melanogaster, UniProt P20659); test: [3H]methyl transfer (automethylation and H3 methylation), SDS-PAGE fluorography; assay type: biochemical; settings: labelled compound; with or without histone H3 peptide (1-20); pH 8.5, 15 °C
T2 construct: gene trx; SET domain as MBP fusion from E. coli
T2 sequence (P20659 3588-3726 limits assumed): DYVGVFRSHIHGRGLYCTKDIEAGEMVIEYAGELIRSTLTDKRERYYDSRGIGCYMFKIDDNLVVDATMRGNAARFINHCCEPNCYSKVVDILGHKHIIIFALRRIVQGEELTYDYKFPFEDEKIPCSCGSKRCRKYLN

[3] = target: T3, MLL1 core complex (MWRAD) (Homo sapiens, UniProt Q03164); settings: labelled compound; no histone H3; pH 8.5, 15 °C; intra-complex methylation of Ash2L by MLL1 SET domain
T3 construct: gene KMT2A
T3 sequence (Q9C005 whole entry, the tested form may be a part): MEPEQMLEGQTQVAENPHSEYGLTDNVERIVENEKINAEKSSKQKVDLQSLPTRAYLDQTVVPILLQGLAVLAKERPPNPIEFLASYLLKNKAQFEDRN
T3 sequence (Q9UBL3 whole entry, further chain, the tested form may be a part): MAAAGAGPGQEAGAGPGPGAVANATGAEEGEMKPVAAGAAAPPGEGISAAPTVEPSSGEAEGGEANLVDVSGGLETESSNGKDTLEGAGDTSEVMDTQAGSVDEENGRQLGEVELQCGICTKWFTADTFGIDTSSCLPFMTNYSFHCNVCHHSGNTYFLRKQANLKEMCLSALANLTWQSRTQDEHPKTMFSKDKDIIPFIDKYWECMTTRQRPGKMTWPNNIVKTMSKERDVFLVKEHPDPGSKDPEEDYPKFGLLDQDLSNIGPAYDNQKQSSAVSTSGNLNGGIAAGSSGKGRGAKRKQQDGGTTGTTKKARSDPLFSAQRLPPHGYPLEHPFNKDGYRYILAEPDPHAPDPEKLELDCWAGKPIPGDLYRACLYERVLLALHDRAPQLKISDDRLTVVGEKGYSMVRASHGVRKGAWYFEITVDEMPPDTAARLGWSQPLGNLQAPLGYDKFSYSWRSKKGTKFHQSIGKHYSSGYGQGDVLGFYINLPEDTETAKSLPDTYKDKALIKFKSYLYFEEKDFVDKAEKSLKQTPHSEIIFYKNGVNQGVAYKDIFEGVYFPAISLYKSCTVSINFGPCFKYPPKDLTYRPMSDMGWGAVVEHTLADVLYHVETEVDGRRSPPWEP
T3 sequence (Q03164 3745-3969): as the sequence (Q03164 3745-3969) above
T3 sequence (Q15291 whole entry, further chain, the tested form may be a part): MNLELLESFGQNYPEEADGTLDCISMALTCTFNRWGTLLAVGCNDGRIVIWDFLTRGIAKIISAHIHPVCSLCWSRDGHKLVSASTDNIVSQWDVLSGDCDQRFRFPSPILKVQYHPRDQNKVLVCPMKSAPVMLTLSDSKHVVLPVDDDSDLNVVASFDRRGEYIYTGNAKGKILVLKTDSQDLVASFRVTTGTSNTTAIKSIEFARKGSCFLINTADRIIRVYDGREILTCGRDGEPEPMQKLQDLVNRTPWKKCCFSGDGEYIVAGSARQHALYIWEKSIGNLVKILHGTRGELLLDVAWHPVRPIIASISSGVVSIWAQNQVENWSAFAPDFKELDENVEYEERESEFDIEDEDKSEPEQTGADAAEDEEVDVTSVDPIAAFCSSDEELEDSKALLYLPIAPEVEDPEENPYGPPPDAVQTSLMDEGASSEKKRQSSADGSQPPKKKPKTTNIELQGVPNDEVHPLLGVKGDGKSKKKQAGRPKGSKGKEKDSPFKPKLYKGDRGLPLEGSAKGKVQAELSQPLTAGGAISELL

[4] = target: T4, WRAD (Homo sapiens, UniProt Q15291+Q9UBL3); settings: labelled compound, no MLL1
T4 construct: gene ASH2L
T4 sequence (Q9C005 whole entry): as the sequence (Q9C005 whole entry, the tested form may be a part) above
T4 sequence (Q15291 whole entry): as the sequence (Q15291 whole entry, further chain, the tested form may be a part) above
T4 sequence (Q9UBL3 whole entry): as the sequence (Q9UBL3 whole entry, further chain, the tested form may be a part) above

For `C[S+](CC[C@H](N)C(=O)O)C[C@H]1O[C@@H](n2cnc3c(N)ncnc32)[C@H](O)[C@@H]1O` (stereo partly shown) [AdoMet], the Km [1] was 10.4 ± 3.1 µM, the “[3H]methyl transfer (automethylation and H3 methylation), SDS-PAGE fluorography” value [2] was “MBP-Trithorax SET domain is enzymatically active and undergoes automethylation in the absence of histone H3” and the “[3H]methyl transfer to Ash2L, SDS-PAGE fluorography” value [3] was “Ash2L methylation is dependent on the catalytic activity of the MLL1 SET domain”. For the same compound, the “[3H]methyl transfer to histone H3 peptide, SDS-PAGE fluorography” value [4] was “despite significant histone H3 methylation by WRAD, no Ash2L methylation was observed”.
